Experimental data as given in patent US20250320215A1, “SALTS OF N-[4-(4-[[2-(DIMETHYLAMINO)ETHYL]AMINO]-3-METHYL-1H-PYRAZOLO[3,4-D]PYRIMIDIN-6-YL)-2-FLUOROPHENYL]-2,5-DIFLUOROBENZENESULFONAMIDE AND CRYSTALLINE FORMS THEREOF” (THRYV THERAPEUTICS INC, priority 2022, published 2025).
≈ marks a conversion by molar mass, not a printed value. Blank lines part the entries; values can stand above or below the molecule they belong to.

Assays:
Format in all cases: physicochemical
[1] = pKa values and protonation state of Compound 1
[2] = Solubility estimates by aliquot addition method in various solvents; details: thermodynamic from solid
Method: Solubility estimates were conducted using an aliquot addition method in a variety of solvents at ambient temperature.
Samples with solvents with poor solubility were heated at 50° C.

[3] = Solubility of the salts in water / MTBE
Method: Solubility in water is >25 mg/mL.

[4] = Dynamic vapor sorption/desorption (DVS) with post-DVS XRPD; details: for Post-DVS XRPD: XRPD after DVS versus before; for Reversibility (DVS): sorption/desorption
Method: Moisture sorption/desorption data were collected on a DVS Intrinsic. 7-20 mg of a sample was placed into a tared sample chamber and automatically weighed. The anhydrates were analyzed with the following setting parameters:
DVS experiments (FIGS. 17, 19, 21, 34, 35, 48 and 50) and XRPD post-DVS experiments (FIGS. 18, 20, 22, 36, 49 and 51) were conducted in order to study the deliquescence behaviour of the crystalline salts upon expose to humidity.

[5] = Water activity study (competition of forms, XRPD); details: room temperature
Method: Water activity study was performed using Compound 3 Form B (anhydrate) as the input material in EtOH/Water with different water content at RT. About 5 mg of Compound 3, Form B was used to prepare saturated solutions and the solutions were filtered by syringe at RT. 5 mg of Compound 3, Form D were added in the 1 mL of filtrate, and the suspension was slurried at RT for 3 and 7 days. The solids collected after filtration were analyzed by XRPD.
Protocol: excess amount of Compound 4 Form B was used to prepare saturated solutions. 6-8 mg each of Compound 4 Form B and Form D were added in the solutions. The suspension was slurried at room temperature for the corresponding times. Residual solids were collected by filtration with syringe filter, and characterized by XRPD.

[6] = Solid stability testing (HPLC purity and XRPD); details: for Solid stability: 60° C. (capped/close) and 40° C./75% RH (open) for 7 days; for Purity, Initial T0 / Purity - 7 days, 60° C. / Purity - 7 days, 40° C./75% RH: HPLC; for Purity, Initial T0 / XRPD, Initial T0: before storage; for Purity - 7 days, 60° C. / XRPD - 7 days, 60° C.: capped/closed vial; for Purity - 7 days, 40° C./75% RH / XRPD - 7 days, 40° C./75% RH: open
Method: HPLC analysis were performed with an Agilent HPLC 1260 series instrument. HPLC method for stability testing is as follows:
Solid stability testing of Compound 3, Form D was evaluated at the conditions of 60° C. (capped) and 40° C./75% RH (open) for 7 days. Polymorphic form and purity were analyzed by XRPD and HPLC, respectively. […] (capped) and 40° C./75% RH (open) for 7 days.
Solid stability testing of Compound 4 Form B and Form D were evaluated at the conditions of 60° C. (vial close) and 40° C./75% RH (vial open) for 7 days. Polymorphic form and purity were checked by XRPD and HPLC, respectively.

[7] = Comparative study (interconversion and water activity) between crystalline forms; details: Compound 3: Forms B, C, D, E, non-aqueous and aqueous systems; Compound 4: Forms B to G
Method: (capped) and 40° C. with 75% relative humidity (open).
Form D is stable at high water activity (0.16≤aW≤0.90). Solid stability study indicated Form D was physically and chemically stable at 60° C. (close) and 40° C. at 75% RH for 7 days.

[8] = Drying, physical stability of the form
Method: After being subjected to drying in a vacuum oven for 1 day at 62-72° C., Form A was characterized by XRPD (FIG. 22: pre-DVS) and proton NMR (FIG. 15).
Form E was obtained by slow cooling crystallization in NMP (FIG. 43). The unstable form has not been characterized further. A clear solution of Compound 4, Form B was dissolved (30 mg) in NMP at 50° C. and cooled from 50° C. to 2° C.

[9] = Slurry study evaluated by XRPD; details: slurry started from Form B; Form C occurred at 30 min; at 60 min
[10] = Thermal treatment (heat-cool cycle by DSC, XRPD of resulting solids)
Method: Compound 3, Form E was treated with heat-cool cycle by DSC. The resulted solids were characterized by XRPD. Compound 3, Form E, was converted to Compound 3, Form D after desolvation.
Compound 4 Form B was treated with heat-cool cycle by DSC. The resulted solids were checked by XRPD. […] The water was excluded at elevated temperature, then entered in the crystal lattice again at room temperature.
Compound 4 Form C and trace Form B was treated with heat-cool cycle by DSC. The resulted solids were checked by XRPD. The sample was converted to low crystalline (LC) Form B after heating to 175° C.
Compound 4 Form D was treated with heat-cool cycle by DSC. The resulted solids were checked by XRPD. The sample kept unchanged after heating to 140° C., but was converted to a new low crystalline form after heating to 210° C. which was assigned to Form F.

Compound: Cc1n[nH]c2nc(-c3ccc(NS(=O)(=O)c4cc(F)ccc4F)c(F)c3)nc(NCCN(C)C)c12 [Compound 1, N-[4-(4-[[2-(dimethylamino)ethyl]amino]-3-methyl-1H-pyrazolo[3,4-d]pyrimidin-6-yl)-2-fluorophenyl]-2,5-difluorobenzenesulfonamide]
- pKa ([1]; first of four pKa values): 2.7
- pKa ([1]; fourth of four pKa values): 11.8
- Charge (dominant protonation state) ([1]; pH 5.81-8.85): Neutral (Zwitterion)
- pKa ([1]; second of four pKa values): 5.81
- pKa ([1]; third of four pKa values): 8.85
- solubility ([2]; ACN, 50 °C, organic solvent or mixture, read-out: Solubility at 50° C.): < 1000 µg/mL
- solubility ([2]; ACN, organic solvent or mixture, read-out: Solubility at RT): < 1000 µg/mL
- solubility ([2]; DCM, 50 °C, organic solvent or mixture, read-out: Solubility at 50° C.): < 1000 µg/mL
- solubility ([2]; DCM, organic solvent or mixture, read-out: Solubility at RT): < 1000 µg/mL
- solubility ([2]; DMF, organic solvent or mixture, read-out: Solubility at RT): 33000 µg/mL (≈ 65.3 mM)
- solubility ([2]; DMSO, organic solvent or mixture, read-out: Solubility at RT): 41000 µg/mL (≈ 81.1 mM)
- solubility ([2]; EtOAc, 50 °C, organic solvent or mixture, read-out: Solubility at 50° C.): < 3000 µg/mL
- solubility ([2]; EtOAc, organic solvent or mixture, read-out: Solubility at RT): < 3000 µg/mL
- solubility ([2]; EtOH, 50 °C, organic solvent or mixture, read-out: Solubility at 50° C.): < 2000 µg/mL
- solubility ([2]; EtOH, organic solvent or mixture, read-out: Solubility at RT): < 2000 µg/mL
- solubility ([2]; IPA, 50 °C, organic solvent or mixture, read-out: Solubility at 50° C.): < 2000 µg/mL
- solubility ([2]; IPA, organic solvent or mixture, read-out: Solubility at RT): < 2000 µg/mL
- solubility ([2]; MTBE, 50 °C, organic solvent or mixture, read-out: Solubility at 50° C.): < 2000 µg/mL
- solubility ([2]; MTBE, organic solvent or mixture, read-out: Solubility at RT): < 2000 µg/mL
- solubility ([2]; MeOH, 50 °C, organic solvent or mixture, read-out: Solubility at 50° C.): > 1000 µg/mL
- solubility ([2]; MeOH, organic solvent or mixture, read-out: Solubility at RT): < 1000 µg/mL
- solubility ([2]; THF, 50 °C, organic solvent or mixture, read-out: Solubility at 50° C.): > 1000 µg/mL
- solubility ([2]; THF, organic solvent or mixture, read-out: Solubility at RT): < 1000 µg/mL
- solubility ([2]; acetone, 50 °C, organic solvent or mixture, read-out: Solubility at 50° C.): < 1000 µg/mL
- solubility ([2]; acetone, organic solvent or mixture, read-out: Solubility at RT): < 1000 µg/mL
- solubility ([2]; water, 50 °C, water, read-out: Solubility at 50° C.): < 2000 µg/mL
- solubility ([2]; water, read-out: Solubility at RT): < 2000 µg/mL

Compound: Cc1n[nH]c2nc(-c3ccc(NS(=O)(=O)c4cc(F)ccc4F)c(F)c3)nc(NCCN(C)C)c12 [Compound 2]
- Solubility in water ([3]; water): < 1000 µg/mL
- Post-DVS XRPD [4]: No change
- wt % gain (DVS) ([4]; from 5 to 95% RH): 0.4 wt %

Compound: Cc1n[nH]c2nc(-c3ccc(NS(=O)(=O)c4cc(F)ccc4F)c(F)c3)nc(NCCN(C)C)c12 [Compound 4 Form A]
- solubility ([3]; MTBE, organic solvent or mixture, thermodynamic from solid, MTBE at RT): < 2000 µg/mL
- Solubility in water ([3]; water): > 25000 µg/mL
- Comments: hygroscopicity (DVS) [4]: Hygroscopic
- hygroscopicity [4]: hygroscopic
- Post-DVS XRPD [4]: No change
- wt % gain (DVS) ([4]; from 5 to 75% RH): 1.3 wt %
- wt % gain (DVS) ([4]; from 75 to 96% RH): 3.2 wt %
- Reversibility (DVS) [4]: Reversible
- physical stability on drying ([8]; vacuum oven for a day at 62-72° C.): retain its crystalline form

Compound: Cc1n[nH]c2nc(-c3ccc(NS(=O)(=O)c4cc(F)ccc4F)c(F)c3)nc(NCCN(C)C)c12 [Compound 4 Form C]
- form conversion during slurry in THF [9]: converted to di-mesylate Form D completely

Next, values leading:

- solubility at 1 day ([3]; water, thermodynamic from solid): < 1000 µg/mL
- Post-DVS XRPD [4]: No change
- wt % gain (DVS) ([4]; from 5 to 96% RH): 2.1 wt %
Compound: Cc1n[nH]c2nc(-c3ccc(NS(=O)(=O)c4cc(F)ccc4F)c(F)c3)nc(NCCN(C)C)c12.Cl [Compound 3 Form A]

- hygroscopicity [4]: slightly hygroscopic
- wt % gain (DVS) ([4]; first value of '1.5 wt % and 1.7 wt % gain from 80 to 90% RH'): 1.5 wt %
- Reversibility (DVS) [4]: Minor hysteresis
- water activity (aw) at which the form is stable / the most stable form [5]: lower than 0.6
- Solid stability [6]: chemically and physically stable
- Purity, Initial T0 [6]: 99.19%
- Purity - 7 days, 60° C. [6]: 99.24%
- Purity - 7 days, 40° C./75% RH [6]: 99.30%
- XRPD, Initial T0 [6]: Form D
- XRPD - 7 days, 60° C. [6]: Form D
- XRPD - 7 days, 40° C./75% RH [6]: Form D
- relative stability among the crystalline forms [7]: most stable form
Compound: Cc1n[nH]c2nc(-c3ccc(NS(=O)(=O)c4cc(F)ccc4F)c(F)c3)nc(NCCN(C)C)c12.Cl [Compound 3 Form D]

- hygroscopicity [4]: slightly hygroscopic
- Post-DVS XRPD [4]: No change
- wt % gain (DVS) ([4]; at 80% RH (25° C.)): 0.99 wt %
- water uptake (DVS) ([4]; at 80% RH, 25° C.): 0.99%
- Solid stability [6]: chemically and physically stable
- Purity, Initial T0 [6]: 99.29%
- Purity - 7 days, 60° C. [6]: 99.17%
- Purity - 7 days, 40° C./75% RH [6]: 99.29%
- XRPD, Initial T0 [6]: Form D
- XRPD - 7 days, 60° C. [6]: Form D
- XRPD - 7 days, 40° C./75% RH [6]: Form D
- XRPD Resulting Form ([10]; Heated to 140° C. at 10° C./min, and cooled to 25° C. at 5° C./min): Form D
- XRPD Resulting Form ([10]; Heated to 210° C. at 10° C./min, and cooled to 25° C. at 5° C./min): Form F
- relative stability among the crystalline forms [7]: most stable form
Compound: Cc1n[nH]c2nc(-c3ccc(NS(=O)(=O)c4cc(F)ccc4F)c(F)c3)nc(NCCN(C)C)c12 [Compound 4 Form D]

- form conversion after drying ([8]; obtained by cooling in NMP from 50° C. to 2° C.): converted to Form D
Compound: Cc1n[nH]c2nc(-c3ccc(NS(=O)(=O)c4cc(F)ccc4F)c(F)c3)nc(NCCN(C)C)c12 [Compound 4 Form E]
